Calls of active or inactive are those of the source. Bounds are passed on as bounds.

Assay [1] has as its target T1, RNA-binding protein pos-1 (Caenorhabditis elegans, UniProt G5EF15).
T1 sequence (G5EF15 whole entry): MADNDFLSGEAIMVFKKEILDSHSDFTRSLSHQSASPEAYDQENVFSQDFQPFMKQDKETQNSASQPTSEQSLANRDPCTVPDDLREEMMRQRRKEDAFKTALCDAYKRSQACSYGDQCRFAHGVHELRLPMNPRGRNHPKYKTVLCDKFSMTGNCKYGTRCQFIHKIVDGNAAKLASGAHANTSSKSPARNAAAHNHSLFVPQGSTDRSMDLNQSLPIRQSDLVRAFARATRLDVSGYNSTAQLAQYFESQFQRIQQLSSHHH
Put plainly: disruptors of C. elegans POS-1 RNA interaction – biochemical, fluorescence polarization, dose response (AID 1964).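 Note: purified POS-1 fused to maltose binding protein made in E. coli; potency of compounds blocking POS-1 binding to fluorescent RNA.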 A general note: In fluorescence polarisation assays a small probe gives low polarisation when free and higher when bound to something large.

The target of assay [2] is T2, Apoptotic protease-activating factor 1 (Homo sapiens, UniProt O14727).
T2 sequence (O14727 whole entry): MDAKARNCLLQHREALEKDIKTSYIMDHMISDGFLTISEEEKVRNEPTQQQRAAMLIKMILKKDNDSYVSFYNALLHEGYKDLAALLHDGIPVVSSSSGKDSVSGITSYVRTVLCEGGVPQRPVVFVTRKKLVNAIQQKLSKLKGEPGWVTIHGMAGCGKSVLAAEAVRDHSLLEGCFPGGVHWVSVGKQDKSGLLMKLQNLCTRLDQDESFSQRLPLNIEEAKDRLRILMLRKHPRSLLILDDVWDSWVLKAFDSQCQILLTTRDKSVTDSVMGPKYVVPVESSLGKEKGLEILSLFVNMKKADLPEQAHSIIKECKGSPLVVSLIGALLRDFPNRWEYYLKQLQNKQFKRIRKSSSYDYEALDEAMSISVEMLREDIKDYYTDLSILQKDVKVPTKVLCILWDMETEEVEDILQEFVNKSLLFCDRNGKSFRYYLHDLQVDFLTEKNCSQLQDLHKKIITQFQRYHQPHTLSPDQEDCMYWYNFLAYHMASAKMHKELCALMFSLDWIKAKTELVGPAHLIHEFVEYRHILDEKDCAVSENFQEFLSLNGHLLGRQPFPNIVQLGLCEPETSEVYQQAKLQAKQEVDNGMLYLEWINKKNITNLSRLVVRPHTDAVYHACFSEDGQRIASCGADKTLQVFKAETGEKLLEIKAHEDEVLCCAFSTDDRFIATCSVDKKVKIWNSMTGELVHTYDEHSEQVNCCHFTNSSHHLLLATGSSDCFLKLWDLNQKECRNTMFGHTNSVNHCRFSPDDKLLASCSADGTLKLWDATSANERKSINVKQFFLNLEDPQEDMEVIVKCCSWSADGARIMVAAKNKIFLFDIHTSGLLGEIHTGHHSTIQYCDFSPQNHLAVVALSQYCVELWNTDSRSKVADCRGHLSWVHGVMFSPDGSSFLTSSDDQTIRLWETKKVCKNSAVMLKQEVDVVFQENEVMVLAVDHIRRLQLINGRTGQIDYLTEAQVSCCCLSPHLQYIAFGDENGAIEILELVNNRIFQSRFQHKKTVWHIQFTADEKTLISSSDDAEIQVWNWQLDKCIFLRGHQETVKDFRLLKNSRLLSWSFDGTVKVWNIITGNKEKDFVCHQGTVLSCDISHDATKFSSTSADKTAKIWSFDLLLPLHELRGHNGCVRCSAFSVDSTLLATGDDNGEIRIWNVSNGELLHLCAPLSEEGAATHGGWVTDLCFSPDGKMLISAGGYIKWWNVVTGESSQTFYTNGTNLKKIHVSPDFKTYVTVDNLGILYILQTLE
In kind it is functional.

The nature of assay [3]: microbe, parasite or virus in culture. Type of assay: functional. Conditions: Mycobacterium tuberculosis.
A short description of assay [4]: viability loss in HepG2 hepatoma cells – cell-based, ATP luminescence, cherry-pick, activator set 2, cytotoxicity control, dose response (AID 1053143). In kind it is functional.
The target in the next assay is Melanocortin receptor 4 (Homo sapiens, UniProt P32245). The experiment in a line: inhibitors of MC4R cAMP signaling – cell-based, TR-FRET, biased antagonists, dose response (AID 602298).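 Note: antagonist potency against agonist-stimulated cAMP production.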 In kind it is functional.
Another assay relates to INS1. Put plainly: INS-1E survival protection against cytokine death – cell-based, luminescence, retest, dose response (AID 449756).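 Note: cell death triggered by IL-1 beta plus TNF-alpha plus IFN-gamma mixture; protective hits raise ATP signal compared with cytokine alone wells.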 Conditions: Rattus norvegicus. Type of assay: functional.
For a further assay, the target named is Large T antigen (Simian virus 40, UniProt P03070). In kind it is functional, Betapolyomavirus macacae.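 Note: Confirmatory-stage PubChem screen for compounds that inhibit SV40 T antigen.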
Assay [5] in a line: general cell-killing toxicity readout – plate reader, dry powder samples, cytotoxicity control for PAX8 inhibitor project, dose response (AID 743021). Type of assay: functional, cell-based.
Assay [6] addresses T3, High affinity choline transporter 1 (Homo sapiens, UniProt Q9GZV3).
T3 sequence (Q9GZV3 whole entry): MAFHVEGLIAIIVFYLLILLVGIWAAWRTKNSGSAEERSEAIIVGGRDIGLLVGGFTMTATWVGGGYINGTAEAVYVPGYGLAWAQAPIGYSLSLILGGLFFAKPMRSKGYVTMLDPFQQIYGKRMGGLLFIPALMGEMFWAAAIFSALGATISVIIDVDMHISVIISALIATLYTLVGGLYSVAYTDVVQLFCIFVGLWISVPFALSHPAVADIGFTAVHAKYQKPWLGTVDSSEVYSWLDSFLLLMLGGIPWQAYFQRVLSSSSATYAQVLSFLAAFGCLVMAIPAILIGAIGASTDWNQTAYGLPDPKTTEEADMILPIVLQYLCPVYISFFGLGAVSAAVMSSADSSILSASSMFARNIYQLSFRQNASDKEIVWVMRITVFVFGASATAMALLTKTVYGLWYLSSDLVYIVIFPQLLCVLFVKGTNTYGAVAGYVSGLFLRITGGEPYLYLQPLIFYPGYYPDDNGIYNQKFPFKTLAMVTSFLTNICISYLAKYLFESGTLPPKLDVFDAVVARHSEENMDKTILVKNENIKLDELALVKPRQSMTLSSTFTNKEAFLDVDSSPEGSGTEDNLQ
Put plainly: human choline transporter blockers, potency – cell-based, 5-point CRC, membrane potential dye, dose response (AID 504840). Type of assay: functional.

The subject of another assay is Streptococcus. Put plainly: Luminescence Microorganism-Based Dose Response Follow up to Identify Compounds Cytotoxic to Streptococcus. [Related pubchem assays: 1677 (Project Summary), 1915, 1914, 1902 (Retest at Dose), 1900 (Counter Screen), 1662 (Primary HTS)]. Type of assay: functional, organism-based. (In general: Counterscreens check selectivity or assay interference.)

Assay [7] is described as follows: luciferase reporter signal suppression in cells – H4 neuroglioma cells, luminescence, dose response (AID 1990). Type of assay: functional, cell-based. (In a reporter assay the amount or activity of a reporter protein is the signal.)
For the next assay, the target named is Paired box protein Pax-8 (Homo sapiens, UniProt Q06710). The experiment in a line: PAX8 transcriptional activity inhibition in RMG-I – RMG-I cells, luciferase, cherry-pick, dose response (AID 687027).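 Note: luciferase reporter driven by Pax8 target thyroperoxidase promoter measured by SteadyGlo luminescence.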 In kind it is functional, cell-based.
A further assay has as its target Beta Lactamase (Pseudomonas aeruginosa, UniProt Q932Y6). Put plainly: BLA reporter interference, concentration series – BLA reporter cells, FRET fluorescence, artefact control for TLR9-MyD88 binding inhibitor project, dose response (AID 588341).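 Note: cell based assay in CHO-K1 cells stably expressing beta-lactamase.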 In kind it is cell-based.
In the next assay the target is Fatty acid synthase (Homo sapiens, UniProt P49327). The experiment in a line: inhibition of human FAS-TE enzyme activity – biochemical, kinetic fluorescence intensity, dose response (AID 624326).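 Note: rate of fluorescence rise from hydrolysis of a fluorogenic O-methyl fluorescein ester substrate.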 Type of assay: functional.
Fatty acid synthase, sequence (P49327 whole entry): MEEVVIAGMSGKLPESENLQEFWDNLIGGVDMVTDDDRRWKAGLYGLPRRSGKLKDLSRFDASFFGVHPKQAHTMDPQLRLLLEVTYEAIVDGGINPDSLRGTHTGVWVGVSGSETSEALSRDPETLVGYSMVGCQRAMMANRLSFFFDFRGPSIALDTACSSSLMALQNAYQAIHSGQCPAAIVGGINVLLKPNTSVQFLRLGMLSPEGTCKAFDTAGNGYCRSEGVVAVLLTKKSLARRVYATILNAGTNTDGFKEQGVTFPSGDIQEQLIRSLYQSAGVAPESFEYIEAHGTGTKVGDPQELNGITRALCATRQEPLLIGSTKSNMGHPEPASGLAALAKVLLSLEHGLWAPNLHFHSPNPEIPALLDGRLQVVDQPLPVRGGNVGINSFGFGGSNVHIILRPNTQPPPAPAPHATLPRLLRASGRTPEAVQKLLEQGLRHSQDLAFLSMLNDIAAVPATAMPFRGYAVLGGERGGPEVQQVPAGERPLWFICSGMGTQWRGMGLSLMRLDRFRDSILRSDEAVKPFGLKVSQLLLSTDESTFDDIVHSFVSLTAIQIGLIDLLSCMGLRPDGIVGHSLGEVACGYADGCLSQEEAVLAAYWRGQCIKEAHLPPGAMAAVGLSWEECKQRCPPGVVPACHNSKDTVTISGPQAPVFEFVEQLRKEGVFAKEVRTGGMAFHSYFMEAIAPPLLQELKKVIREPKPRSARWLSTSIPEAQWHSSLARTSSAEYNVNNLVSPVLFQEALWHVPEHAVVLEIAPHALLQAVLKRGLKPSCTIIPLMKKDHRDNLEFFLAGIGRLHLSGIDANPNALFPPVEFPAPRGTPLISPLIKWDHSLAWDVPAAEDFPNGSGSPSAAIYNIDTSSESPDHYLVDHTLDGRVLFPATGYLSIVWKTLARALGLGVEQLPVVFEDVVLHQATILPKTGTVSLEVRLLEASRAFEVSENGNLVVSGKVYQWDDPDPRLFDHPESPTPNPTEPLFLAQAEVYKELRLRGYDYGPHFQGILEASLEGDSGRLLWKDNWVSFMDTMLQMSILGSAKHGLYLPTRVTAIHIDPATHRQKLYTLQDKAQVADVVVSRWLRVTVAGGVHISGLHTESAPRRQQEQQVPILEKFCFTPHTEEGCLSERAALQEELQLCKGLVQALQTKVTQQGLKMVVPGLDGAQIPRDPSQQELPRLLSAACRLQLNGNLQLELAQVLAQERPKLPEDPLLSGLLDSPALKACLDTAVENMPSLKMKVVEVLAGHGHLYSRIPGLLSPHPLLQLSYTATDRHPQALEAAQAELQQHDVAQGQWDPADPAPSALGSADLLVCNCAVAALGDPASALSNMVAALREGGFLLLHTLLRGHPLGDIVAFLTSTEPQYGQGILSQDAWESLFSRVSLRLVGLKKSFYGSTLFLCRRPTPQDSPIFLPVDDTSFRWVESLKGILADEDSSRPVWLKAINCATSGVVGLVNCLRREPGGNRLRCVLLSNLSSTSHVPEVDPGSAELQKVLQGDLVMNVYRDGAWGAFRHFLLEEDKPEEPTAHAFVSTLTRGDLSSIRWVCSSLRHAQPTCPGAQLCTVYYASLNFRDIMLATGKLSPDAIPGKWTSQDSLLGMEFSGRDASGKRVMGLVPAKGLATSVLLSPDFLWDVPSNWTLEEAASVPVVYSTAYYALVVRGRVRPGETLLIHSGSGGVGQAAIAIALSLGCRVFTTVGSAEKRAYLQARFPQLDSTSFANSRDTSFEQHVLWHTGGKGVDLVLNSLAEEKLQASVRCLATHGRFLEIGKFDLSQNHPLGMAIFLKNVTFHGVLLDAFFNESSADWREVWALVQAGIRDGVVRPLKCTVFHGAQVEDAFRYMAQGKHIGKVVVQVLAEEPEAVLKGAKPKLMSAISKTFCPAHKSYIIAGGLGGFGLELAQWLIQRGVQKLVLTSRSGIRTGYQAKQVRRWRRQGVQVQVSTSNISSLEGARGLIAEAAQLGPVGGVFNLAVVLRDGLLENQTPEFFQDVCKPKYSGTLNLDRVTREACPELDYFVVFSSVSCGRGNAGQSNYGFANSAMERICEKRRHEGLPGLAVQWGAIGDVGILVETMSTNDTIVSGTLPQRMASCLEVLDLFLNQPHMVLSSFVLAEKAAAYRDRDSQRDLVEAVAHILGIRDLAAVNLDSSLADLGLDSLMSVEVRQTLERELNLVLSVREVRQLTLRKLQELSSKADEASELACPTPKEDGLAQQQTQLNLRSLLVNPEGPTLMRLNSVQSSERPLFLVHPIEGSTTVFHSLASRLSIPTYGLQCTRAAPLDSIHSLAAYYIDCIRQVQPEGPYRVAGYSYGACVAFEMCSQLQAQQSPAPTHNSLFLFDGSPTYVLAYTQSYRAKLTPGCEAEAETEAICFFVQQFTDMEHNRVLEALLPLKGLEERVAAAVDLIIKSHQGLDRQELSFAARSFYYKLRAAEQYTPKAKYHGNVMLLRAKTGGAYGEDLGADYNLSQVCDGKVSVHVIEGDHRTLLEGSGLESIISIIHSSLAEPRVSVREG

Large T antigen, sequence (P03070 whole entry): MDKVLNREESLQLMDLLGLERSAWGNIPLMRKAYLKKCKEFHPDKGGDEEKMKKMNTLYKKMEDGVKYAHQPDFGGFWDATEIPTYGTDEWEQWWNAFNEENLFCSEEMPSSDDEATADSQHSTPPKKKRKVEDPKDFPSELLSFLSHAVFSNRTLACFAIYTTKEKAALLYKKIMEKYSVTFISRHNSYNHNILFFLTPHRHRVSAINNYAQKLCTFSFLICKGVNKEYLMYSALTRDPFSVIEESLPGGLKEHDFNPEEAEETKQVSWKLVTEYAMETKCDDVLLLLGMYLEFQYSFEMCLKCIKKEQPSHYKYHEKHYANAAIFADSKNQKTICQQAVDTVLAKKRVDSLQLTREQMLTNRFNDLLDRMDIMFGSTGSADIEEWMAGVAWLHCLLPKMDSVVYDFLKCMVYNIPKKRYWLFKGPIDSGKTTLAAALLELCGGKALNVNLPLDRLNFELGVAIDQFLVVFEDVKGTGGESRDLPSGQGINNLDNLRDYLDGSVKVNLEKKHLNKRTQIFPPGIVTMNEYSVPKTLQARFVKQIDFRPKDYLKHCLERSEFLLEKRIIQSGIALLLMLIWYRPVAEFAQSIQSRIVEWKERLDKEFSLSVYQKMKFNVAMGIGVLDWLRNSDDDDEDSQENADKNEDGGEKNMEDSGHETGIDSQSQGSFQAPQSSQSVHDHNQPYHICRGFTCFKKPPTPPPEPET
Melanocortin receptor 4, sequence (P32245 whole entry): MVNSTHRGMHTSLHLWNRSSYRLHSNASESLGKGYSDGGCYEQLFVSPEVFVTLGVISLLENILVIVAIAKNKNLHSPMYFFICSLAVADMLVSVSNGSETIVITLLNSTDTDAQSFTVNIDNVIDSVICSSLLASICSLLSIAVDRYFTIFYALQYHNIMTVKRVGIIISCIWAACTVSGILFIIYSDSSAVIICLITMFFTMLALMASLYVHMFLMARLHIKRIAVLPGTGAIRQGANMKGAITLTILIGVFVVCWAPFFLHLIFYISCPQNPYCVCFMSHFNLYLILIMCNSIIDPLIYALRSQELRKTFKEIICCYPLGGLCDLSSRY
Paired box protein Pax-8, sequence (Q06710 whole entry): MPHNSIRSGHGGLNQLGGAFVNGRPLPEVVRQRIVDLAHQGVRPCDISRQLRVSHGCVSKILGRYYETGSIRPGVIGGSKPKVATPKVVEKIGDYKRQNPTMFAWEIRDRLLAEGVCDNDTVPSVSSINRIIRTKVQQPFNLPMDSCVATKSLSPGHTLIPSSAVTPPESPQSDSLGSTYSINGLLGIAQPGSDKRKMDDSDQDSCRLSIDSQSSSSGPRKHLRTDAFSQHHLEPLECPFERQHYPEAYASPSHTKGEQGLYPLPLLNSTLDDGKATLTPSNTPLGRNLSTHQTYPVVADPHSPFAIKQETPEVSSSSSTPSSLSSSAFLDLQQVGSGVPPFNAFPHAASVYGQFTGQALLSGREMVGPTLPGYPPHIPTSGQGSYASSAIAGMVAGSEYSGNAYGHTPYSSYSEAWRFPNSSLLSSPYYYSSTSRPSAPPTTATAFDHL
Beta Lactamase, sequence (Q932Y6 whole entry): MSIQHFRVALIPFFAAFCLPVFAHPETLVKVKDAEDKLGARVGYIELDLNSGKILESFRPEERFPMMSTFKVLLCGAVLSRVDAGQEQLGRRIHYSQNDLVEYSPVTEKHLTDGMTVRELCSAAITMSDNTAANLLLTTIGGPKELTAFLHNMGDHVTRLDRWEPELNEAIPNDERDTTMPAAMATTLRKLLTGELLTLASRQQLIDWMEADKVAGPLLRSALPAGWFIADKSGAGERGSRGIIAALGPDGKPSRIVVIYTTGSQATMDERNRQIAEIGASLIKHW

A word on the EC50: it is the concentration at which the effect is half-maximal. One may read the IC50 as the point on the concentration scale where inhibition reaches its midpoint. Regarding `CCCC[n+]1ccn(C2=C([N-]S(=O)(=O)c3ccc(Cl)cc3)C(=O)c3ccccc3C2=O)c1`, the EC50 in assay [1] was > 300 µM (inconclusive). Besides, the IC50 in assay [2] was 19.3 µM (active).
The term AC50 denotes the concentration giving half of the maximal activity seen. With `CC(=O)c1cccc2c1N=C(c1[nH]c3ccccc3c1O)C2=O`, the CC50 in [3] was > 40 µM (active). The AC50 in assay [4] was 22.4 µM (active).
As to `CCC1CCCCN1S(=O)(=O)c1ccc(NC(=O)c2nc(S(C)(=O)=O)ncc2Cl)cc1` (centres undefined), the IC50 on Melanocortin receptor 4 is 1.17 µM (active); at Large T antigen it was 44.8 µM (active); in assay [6] it was 15.8 µM (active); on Beta Lactamase, 11.1 µM (inactive); on Fatty acid synthase it was 4.03 µM (active). For the same molecule, the AC50 in the assay on INS1 is 5.24 µM (active); in [5], 20.8 µM (active); at Paired box protein Pax-8, 5.67 µM (active). The EC50 in the assay with Streptococcus is 16.5 µM (active); in assay [7] it was 11.2 µM (active).

Values taken from ChEMBL document CHEMBL1201862, “PubChem BioAssay data set” (2004).
